Data on seven compounds can be found in patent publication US20250353891A1 (MEDIMMUNE LIMITED, priority 2022, published 2025).

Structures are written as SMILES. Starred links: 1 amine or outer side, 2 acyl side, 3 side chain; linkers in the order of their positions; H or OH if unused. Non-standard residues stand in square brackets, D forms with d. Residues, ends and D or L forms follow the SMILES beside them. Groups on a side chain read outwards from the residue. *: point of attachment. C20 diacid = O=C(O)CCCCCCCCCCCCCCCCCCC(=O)*; C18 diacid = O=C(O)CCCCCCCCCCCCCCCCC(=O)*; γGlu = O=C(O)[C@H](CCC(=O)[*:2])N[*:1]; αMeF = C[C@](N)(Cc1ccccc1)C(=O)O; AEEA = NCCOCCOCC(=O)O; Aib = CC(C)(N)C(=O)O

Assay [1] concerns the target human glucagon receptor (hGCGR) (Homo sapiens, UniProt P47871). As to the kind of experiment: cAMP production (HTRF) in CHO cells expressing hGCGR. Set-up: expressed in transfected cells. The note with it: Table 7, peptides modified at position 20; cAMP in CHO hGCGR cells; geometric mean; read-out: hGluc-R EC50. Format: cell-based. The method, boiled down:
(§1)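 Potency values represent EC50 from 4-parameter logistic curves of HTRF % Delta F signal. Receptor-expressing CHO cells (hGCGR 2×10^5 cells/mL, hGLP-1R 1×10^5 cells/mL) were exposed for 30 min at room temperature before two-step cAMP detection.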
(Changes in cAMP serve as a functional read-out for many G protein-coupled receptors.)

Assay [2] has as its target human GLP-1 receptor (hGLP-1R) (Homo sapiens, UniProt P43220). As to the kind of experiment: cAMP production (HTRF) in CHO cells expressing hGLP-1R. Set-up: expressed in transfected cells. It counts as cell-based. Conditions: for EC50: Table 7, peptides modified at position 20, cAMP in CHO hGLP-1R cells, geometric mean, read-out: hGLP-1R EC50; for % Relative Potency Ratio: Table 7, % GLP-1R activity relative to GLP-1 / % GlucR activity relative to glucagon. Put shortly: as §1

human GLP-1 receptor (hGLP-1R), sequence (P43220 24-463): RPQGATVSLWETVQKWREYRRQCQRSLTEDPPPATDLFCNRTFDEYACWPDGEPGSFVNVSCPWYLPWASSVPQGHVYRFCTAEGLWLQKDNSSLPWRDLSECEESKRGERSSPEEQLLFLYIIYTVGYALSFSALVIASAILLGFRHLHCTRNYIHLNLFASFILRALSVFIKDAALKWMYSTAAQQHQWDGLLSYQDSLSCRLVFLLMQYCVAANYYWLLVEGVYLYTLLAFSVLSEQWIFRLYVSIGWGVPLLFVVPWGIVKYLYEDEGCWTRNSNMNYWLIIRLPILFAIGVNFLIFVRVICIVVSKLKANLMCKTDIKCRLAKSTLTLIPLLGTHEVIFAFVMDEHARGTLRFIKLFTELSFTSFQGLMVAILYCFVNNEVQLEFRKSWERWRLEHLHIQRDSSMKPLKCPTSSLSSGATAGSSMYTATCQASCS
human glucagon receptor (hGCGR), sequence (P47871 26-477): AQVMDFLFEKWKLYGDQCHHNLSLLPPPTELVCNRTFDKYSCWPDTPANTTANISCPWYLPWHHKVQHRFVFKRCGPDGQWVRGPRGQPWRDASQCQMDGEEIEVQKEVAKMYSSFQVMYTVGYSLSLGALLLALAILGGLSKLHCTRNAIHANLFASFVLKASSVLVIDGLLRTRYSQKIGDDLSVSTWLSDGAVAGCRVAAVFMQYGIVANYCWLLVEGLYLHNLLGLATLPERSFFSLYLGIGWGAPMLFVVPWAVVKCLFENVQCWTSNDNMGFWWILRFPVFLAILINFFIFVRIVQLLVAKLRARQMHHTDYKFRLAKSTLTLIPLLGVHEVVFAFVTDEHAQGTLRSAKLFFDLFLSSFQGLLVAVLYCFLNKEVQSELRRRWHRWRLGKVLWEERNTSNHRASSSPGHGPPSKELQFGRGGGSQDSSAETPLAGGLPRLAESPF

As usually defined, the EC50 is the midpoint of the concentration-response curve. With `CC[C@H](C)[C@H](NC(=O)C(C)(C)NC(=O)[C@H](CCC(N)=O)NC(=O)[C@@H](NC(=O)[C@H](Cc1ccccc1)NC(=O)[C@H](CC(=O)O)NC(=O)[C@H](CCCCNC(=O)COCCOCCNC(=O)COCCOCCNC(=O)CC[C@H](NC(=O)CCCCCCCCCCCCCCCCC(=O)O)C(=O)O)NC(=O)[C@H](C)NC(=O)[C@H](C)NC(=O)[C@H](CCC(N)=O)NC(=O)[C@H](CO)NC(=O)[C@H](CC(=O)O)NC(=O)[C@H](CC(C)C)NC(=O)[C@](C)(Cc1ccccc1)NC(=O)[C@H](CCCCN)NC(=O)[C@H](CO)NC(=O)[C@@H](NC(=O)[C@H](CC(=O)O)NC(=O)[C@H](CO)NC(=O)[C@@H](NC(=O)[C@](C)(Cc1ccccc1)NC(=O)[C@H](CO)NC(=O)CNC(=O)[C@H](Cc1c[nH]cn1)NC(=O)C(C)(C)NC(=O)[C@@H](N)Cc1c[nH]cn1)[C@@H](C)O)C(C)C)C(C)C)C(=O)N[C@@H](C)C(=O)N[C@@H](CC(N)=O)C(=O)N[C@H](C(N)=O)[C@@H](C)O` [Peptide 207] (H-H[Aib]HGS[αMeF]TSDVSK[αMeF]LDSQAAK([AEEA-AEEA-γGlu-C18 diacid])DFVQ[Aib]IANT-NH2), the EC50 in assay [1] was found to be 0.0962 nM; in assay [2] it was 0.178 nM. The “% Relative Potency Ratio” value in assay [2] came to 1.1.

Take `CC[C@H](C)[C@H](NC(=O)[C@H](Cc1c[nH]c2ccccc12)NC(=O)[C@H](CCC(N)=O)NC(=O)[C@@H](NC(=O)[C@H](Cc1ccccc1)NC(=O)[C@H](CC(=O)O)NC(=O)[C@H](CCCCNC(=O)CC[C@H](NC(=O)CCCCCCCCCCCCCCCCC(=O)O)C(=O)O)NC(=O)[C@H](C)NC(=O)[C@H](C)NC(=O)[C@H](CCCNC(=N)N)NC(=O)[C@H](CO)NC(=O)[C@H](CC(=O)O)NC(=O)[C@H](CC(C)C)NC(=O)[C@](C)(Cc1ccccc1)NC(=O)[C@H](CCCCN)NC(=O)[C@H](CO)NC(=O)[C@@H](NC(=O)[C@H](CC(=O)O)NC(=O)[C@H](CO)NC(=O)[C@@H](NC(=O)[C@H](Cc1ccccc1)NC(=O)[C@@H](NC(=O)CNC(=O)[C@H](CCC(N)=O)NC(=O)C(C)(C)NC(=O)[C@@H](N)Cc1c[nH]cn1)[C@@H](C)O)[C@@H](C)O)C(C)C)C(C)C)C(=O)N[C@@H](C)C(=O)N[C@@H](CC(N)=O)C(=O)N[C@H](C(N)=O)[C@@H](C)O` [Peptide 208]: in assay [1], the EC50 was 0.658 nM. In addition, in assay [2], the EC50 stood at 0.0644 nM and the “% Relative Potency Ratio” value worked out at 20.2.

In the case of `CC[C@H](C)[C@H](NC(=O)[C@H](Cc1c[nH]c2ccccc12)NC(=O)[C@H](CCC(=O)O)NC(=O)[C@@H](NC(=O)[C@H](Cc1ccccc1)NC(=O)[C@H](CC(=O)O)NC(=O)[C@H](CCCCNC(=O)COCCOCCNC(=O)COCCOCCNC(=O)CC[C@H](NC(=O)CCCCCCCCCCCCCCCCC(=O)O)C(=O)O)NC(=O)[C@H](C)NC(=O)[C@H](C)NC(=O)[C@H](CCC(N)=O)NC(=O)[C@H](CO)NC(=O)[C@H](CC(=O)O)NC(=O)[C@H](CC(C)C)NC(=O)[C@](C)(Cc1ccccc1)NC(=O)[C@H](CCCCN)NC(=O)[C@H](CO)NC(=O)[C@@H](NC(=O)[C@H](CC(=O)O)NC(=O)[C@H](CO)NC(=O)[C@@H](NC(=O)[C@](C)(Cc1ccccc1)NC(=O)[C@H](CO)NC(=O)CNC(=O)[C@H](Cc1c[nH]cn1)NC(=O)C(C)(C)NC(=O)[C@@H](N)Cc1c[nH]cn1)[C@@H](C)O)C(C)C)C(C)C)C(=O)N[C@@H](C)C(=O)N[C@@H](CC(N)=O)C(=O)N[C@H](C(N)=O)[C@@H](C)O` [Peptide 209] (H-H[Aib]HGS[αMeF]TSDVSK[αMeF]LDSQAAK([AEEA-AEEA-γGlu-C18 diacid])DFVEWIANT-NH2), the EC50 came to 0.0426 nM in assay [1] and 0.127 nM in assay [2]. The “% Relative Potency Ratio” value in assay [2] is on record as 0.7.

Take `CC[C@H](C)[C@H](NC(=O)[C@H](Cc1c[nH]c2ccccc12)NC(=O)[C@H](CCC(=O)O)NC(=O)[C@@H](NC(=O)[C@H](Cc1ccccc1)NC(=O)[C@H](CC(=O)O)NC(=O)[C@H](CCCCNC(=O)COCCOCCNC(=O)COCCOCCNC(=O)CC[C@H](NC(=O)CC[C@H](NC(=O)CCCCCCCCCCCCCCCCC(=O)O)C(=O)O)C(=O)O)NC(=O)[C@H](C)NC(=O)[C@H](C)NC(=O)[C@H](CCC(N)=O)NC(=O)[C@H](CO)NC(=O)[C@H](CC(=O)O)NC(=O)[C@H](CC(C)C)NC(=O)[C@](C)(Cc1ccccc1)NC(=O)[C@H](CCCCN)NC(=O)[C@H](CO)NC(=O)[C@@H](NC(=O)[C@H](CC(=O)O)NC(=O)[C@H](CO)NC(=O)[C@@H](NC(=O)[C@](C)(Cc1ccccc1)NC(=O)[C@H](CO)NC(=O)CNC(=O)[C@H](Cc1c[nH]cn1)NC(=O)C(C)(C)NC(=O)[C@@H](N)Cc1c[nH]cn1)[C@@H](C)O)C(C)C)C(C)C)C(=O)N[C@@H](C)C(=O)N[C@@H](CC(N)=O)C(=O)N[C@H](C(N)=O)[C@@H](C)O` [Peptide 210] (H-H[Aib]HGS[αMeF]TSDVSK[αMeF]LDSQAAK([AEEA-AEEA-γGlu-γGlu-C18 diacid])DFVEWIANT-NH2): the EC50 in assay [1] came to 0.0937 nM; in assay [2], 0.156 nM. The “% Relative Potency Ratio” value in assay [2] came out at 1.2.

For the compound `CC[C@H](C)[C@H](NC(=O)[C@H](Cc1c[nH]c2ccccc12)NC(=O)[C@H](CCC(N)=O)NC(=O)[C@@H](NC(=O)[C@H](Cc1ccccc1)NC(=O)[C@H](CC(=O)O)NC(=O)[C@H](CCCCNC(=O)COCCOCCNC(=O)COCCOCCNC(=O)CC[C@H](NC(=O)CC[C@H](NC(=O)CCCCCCCCCCCCCCCCCCC(=O)O)C(=O)O)C(=O)O)NC(=O)[C@H](C)NC(=O)[C@H](C)NC(=O)[C@H](CCCNC(=N)N)NC(=O)[C@H](CO)NC(=O)[C@H](CC(=O)O)NC(=O)[C@H](CC(C)C)NC(=O)[C@](C)(Cc1ccccc1)NC(=O)[C@H](CCCCN)NC(=O)[C@H](CO)NC(=O)[C@@H](NC(=O)[C@H](CC(=O)O)NC(=O)[C@H](CO)NC(=O)[C@@H](NC(=O)[C@](C)(Cc1ccccc1)NC(=O)[C@H](CO)NC(=O)CNC(=O)[C@H](Cc1c[nH]cn1)NC(=O)C(C)(C)NC(=O)[C@@H](N)Cc1c[nH]cn1)[C@@H](C)O)C(C)C)C(C)C)C(=O)N[C@@H](C)C(=O)N[C@@H](CC(N)=O)C(=O)N[C@H](C(N)=O)[C@@H](C)O` [Peptide 211] (H-H[Aib]HGS[αMeF]TSDVSK[αMeF]LDSRAAK([AEEA-AEEA-γGlu-γGlu-C20 diacid])DFVQWIANT-NH2), the EC50 in assay [1] was 0.0609 nM. Also, in assay [2], the EC50 turned out to be 0.167 nM and the “% Relative Potency Ratio” value is 0.7.

Take `CC[C@H](C)[C@H](NC(=O)[C@H](Cc1c[nH]c2ccccc12)NC(=O)[C@H](CCC(=O)O)NC(=O)[C@@H](NC(=O)[C@H](Cc1ccccc1)NC(=O)[C@H](CC(=O)O)NC(=O)[C@H](CCCCNC(=O)COCCOCCNC(=O)COCCOCCNC(=O)CC[C@H](NC(=O)CCCCCCCCCCCCCCCCCCC(=O)O)C(=O)O)NC(=O)[C@H](C)NC(=O)[C@H](C)NC(=O)[C@H](CCCNC(=N)N)NC(=O)[C@H](CO)NC(=O)[C@H](CC(=O)O)NC(=O)[C@H](CC(C)C)NC(=O)[C@](C)(Cc1ccccc1)NC(=O)[C@H](CCCCN)NC(=O)[C@H](CO)NC(=O)[C@@H](NC(=O)[C@H](CC(=O)O)NC(=O)[C@H](CO)NC(=O)[C@@H](NC(=O)[C@](C)(Cc1ccccc1)NC(=O)[C@H](CO)NC(=O)CNC(=O)[C@H](Cc1c[nH]cn1)NC(=O)C(C)(C)NC(=O)[C@@H](N)Cc1c[nH]cn1)[C@@H](C)O)C(C)C)C(C)C)C(=O)N[C@@H](C)C(=O)N[C@@H](CC(N)=O)C(=O)N[C@H](C(N)=O)[C@@H](C)O` [Peptide 212] (H-H[Aib]HGS[αMeF]TSDVSK[αMeF]LDSRAAK([AEEA-AEEA-γGlu-C20 diacid])DFVEWIANT-NH2): the EC50 in assay [1] was 0.0975 nM. Further, in assay [2], the EC50 stood at 0.532 nM and the “% Relative Potency Ratio” value came to 0.4.

Turning to `CC[C@H](C)[C@H](NC(=O)[C@H](Cc1c[nH]c2ccccc12)NC(=O)[C@H](CCC(=O)O)NC(=O)[C@@H](NC(=O)[C@H](Cc1ccccc1)NC(=O)[C@H](CC(=O)O)NC(=O)[C@H](CCCCNC(=O)COCCOCCNC(=O)COCCOCCNC(=O)CC[C@H](NC(=O)CC[C@H](NC(=O)CCCCCCCCCCCCCCCCCCC(=O)O)C(=O)O)C(=O)O)NC(=O)[C@H](C)NC(=O)[C@H](C)NC(=O)[C@H](CCCNC(=N)N)NC(=O)[C@H](CO)NC(=O)[C@H](CC(=O)O)NC(=O)[C@H](CC(C)C)NC(=O)[C@](C)(Cc1ccccc1)NC(=O)[C@H](CCCCN)NC(=O)[C@H](CO)NC(=O)[C@@H](NC(=O)[C@H](CC(=O)O)NC(=O)[C@H](CO)NC(=O)[C@@H](NC(=O)[C@](C)(Cc1ccccc1)NC(=O)[C@H](CO)NC(=O)CNC(=O)[C@H](Cc1c[nH]cn1)NC(=O)C(C)(C)NC(=O)[C@@H](N)Cc1c[nH]cn1)[C@@H](C)O)C(C)C)C(C)C)C(=O)N[C@@H](C)C(=O)N[C@@H](CC(N)=O)C(=O)N[C@H](C(N)=O)[C@@H](C)O` [Peptide 213] (H-H[Aib]HGS[αMeF]TSDVSK[αMeF]LDSRAAK([AEEA-AEEA-γGlu-γGlu-C20 diacid])DFVEWIANT-NH2; N-terminus assumed), the EC50 in assay [1] is 0.141 nM. Moreover, in assay [2], the EC50 amounted to 0.534 nM and the “% Relative Potency Ratio” value worked out at 0.5.
